The source of these data is patent publication US11459325B2, “Heterocyclic compound” (Takeda Pharmaceutical Company Limited, priority 2018, dated 2022).

One experiment concerns GBA mutant human fibroblasts GM008760. As to the kind of experiment: Glucosylceramide lowering assay. The class given is cell-based. The settings on record: 10 μM test compound, 4 days culture; GlcCer (C16:0)/Cer (C16:0) molar ratio of test compound group relative to DMSO control group x100; smaller value = glucosylceramide lowering. The protocol: Glucosylceramide Lowering Assay
Using GBA mutant human fibroblasts containing mutated glucosylceramidase, the effect of test compounds on glucosylceramide reduction was evaluated.
GBA mutant human fibroblasts GM008760 (Coriel Institute) were seeded in a 96-well multiwell plate at a density of 5,000 cells/100 μL culture solution/well. GlutaMAX (Thermo Fishcer Scientific), penicillin-streptomycin, and Minimum Essential Media (Thermo Fishcer Scientific) supplemented with 15% fetal bovine serum were used as a culture solution. After culturing for 2 days, a 10 mM DMSO solution of the test compound diluted with the culture solution was added to a 96-well plate by 100 μL to adjust a final test compound concentration to 10 μM. After culturing the cells for 4 days in the presence of the test compound, the culture solution was removed, and the cells adhered to the 96-well plate were washed with a phosphate buffer (ThermoFisher Scientific, product number 14190-144). A solvent composed of 50% ethanol and 50% isopropanol was added to the 96-well plate by 100 μL, and the intracellular lipids were dissolved by pipetting. A solution prepared by dissolving N-Octadecanoyl-D35-psychosine (50 ng/mL, Matreya LLC Inc.) as an internal standard in 50% ethanol and 50% isopropanol was added to the sample in an equal volume, and 2.5 μL of the centrifuged supernatant was used as the test compound group.
In the same manner as above, a control group was prepared by using DMSO instead of the 10 mM DMSO solution of the test compound.
For the test compound group and the control group, molar concentrations of glucosylceramide [GlcCer (C16:0)] and ceramide [Cer (C16:0)] were quantified using Rapidfire-MS/MS (API-5000, Turbo-ESI, SRM), and the glucosylceramide lowering effect of the test compound group relative to the control group was evaluated by the following formula. (GlcCer/Cer of test compound group)/(GlcCer/Cer of control group)×100 wherein GlcCer/Cer is the ratio of the molar concentration of glucosylceramide to that of ceramide.
In this test, when the numerical value obtained by the above calculation formula is small, glucosylceramide is metabolized to ceramide by the test compound, or the synthesis of glucosylceramide from ceramide is inhibited by the test compound, that is, it can be said that the test compound has a glucosylceramide lowering effect.
`Cc1cn(C)c(=O)c2c(C(=O)N3CC4CC4(c4ccc(OC(F)(F)F)cc4)C3)cnn12` (centres unmarked) [Example 305, 5,7-dimethyl-3-((1-(4-(trifluoromethoxy)phenyl)-3-azabicyclo[3.1.0]hex-3-yl)carbonyl)pyrazolo[1,5-a]pyrazin-4(5H)-one]: the “10 μM GlcCer/Cer (% of control)” value is 47 % of control.

The same experiment, now with this note: Homo sapiens, Fibroblast, 96 h; 10 μM test compound, 4 days culture; GlcCer (C16:0)/Cer (C16:0) molar ratio of test compound group relative to DMSO control group x100; smaller value = glucosylceramide lowering.
For the compound `Cc1cn(C)c(=O)c2c(C(=O)NC(C)(C)c3ccccc3)cn(C)c12` [Example 219, 1,5,7-trimethyl-4-oxo-N-(2-phenylpropan-2-yl)-4,5-dihydro-1H-pyrrolo[3,2-c]pyridine-3-carboxamide], the activity at 10 µM was found to be 63%.
Take `Cc1cn(C)c(=O)c2c(C(=O)N3C[C@@H]4C[C@]4(c4ccc(Cl)c(Cl)c4)C3)cn(C)c12` [Example 206, 3-(((1S,5R)-1-(3,4-dichlorophenyl)-3-azabicyclo[3.1.0]hex-3-yl)carbonyl)-1,5,7-trimethyl-1,5-dihydro-4H-pyrrolo[3,2-c]pyridin-4-one]: the activity at 10 µM turned out to be 49%.
Same read-out and setting: the figure for `Cc1cn(C)c(=O)c2c(C(=O)N3CC4CC4(c4ccc(OC(F)(F)F)c(F)c4)C3)cn(C)c12` (centres unmarked) [Example 139, 3-((1-(3-fluoro-4-(trifluoromethoxy)phenyl)-3-azabicyclo[3.1.0]hex-3-yl)carbonyl)-1,5,7-trimethyl-1,5-dihydro-4H-pyrrolo[3,2-c]pyridin-4-one] is 37%; for `Cc1cn(C)c(=O)c2c(C(=O)N3CC4CC4(c4cccc5ccccc45)C3)cn(C)c12` (centres unmarked) [Example 262, 1,5,7-trimethyl-3-((1-(1-naphthyl)-3-azabicyclo[3.1.0]hex-3-yl)carbonyl)-1,5-dihydro-4H-pyrrolo[3,2-c]pyridin-4-one] it is 51%.
Still for that read-out and setting: as for `Cc1cn(C)c(=O)c2c(C(=O)NC3(c4ccc(Cl)cc4)CCC3)cn(C)c12` [Example 228, N-(1-(4-chlorophenyl)cyclobutyl)-1,5,7-trimethyl-4-oxo-4,5-dihydro-1H-pyrrolo[3,2-c]pyridine-3-carboxamide], the figure is 43%; as for `Cn1cc(C(=O)NC(C)(C)c2ccc(Cl)cc2)c2c(=O)n(CC#N)ccc21` [Example 296, N-(2-(4-chlorophenyl)propan-2-yl)-5-(cyanomethyl)-1-methyl-4-oxo-4,5-dihydro-1H-pyrrolo[3,2-c]pyridine-3-carboxamide], 52%.
Same read-out and setting: the figure for `Cc1cn(C)c(=O)c2c(C(=O)N3CC4CC4(c4ccc(F)cc4)C3)cn(C)c12` (centres unmarked) [Example 124, 3-((1-(4-fluorophenyl)-3-azabicyclo[3.1.0]hex-3-yl)carbonyl)-1,5,7-trimethyl-1,5-dihydro-4H-pyrrolo[3,2-c]pyridin-4-one] is 56%.
As for `Cc1cn(C)c(=O)c2c(C(=O)N3CC4CC4(c4ccc(Cl)c(C(F)(F)F)c4)C3)cn(C)c12` (centres unmarked) [Example 141, 3-((1-(4-chloro-3-(trifluoromethyl)phenyl)-3-azabicyclo[3.1.0]hex-3-yl)carbonyl)-1,5,7-trimethyl-1,5-dihydro-4H-pyrrolo[3,2-c]pyridin-4-one], the activity at 10 µM came out at 47%.
Same read-out and setting: the figure for `Cc1cn(-c2ccccc2OCC(F)(F)F)c(=O)c2c(C(=O)Nc3ccc(N4CCOCC4)cc3)cnn12` [Example 334, 7-methyl-N-[4-(morpholin-4-yl)phenyl]-4-oxo-5-[2-(2,2,2-trifluoroethoxy)phenyl]-4,5-dihydropyrazolo[1,5-a]pyrazine-3-carboxamide] is 27%; for `COc1ccccc1-n1cc(C)n2ncc(C(=O)Nc3ccc(N4CCOCC4)cc3)c2c1=O` [Example 311, 5-(2-methoxyphenyl)-7-methyl-N-(4-(morpholin-4-yl)phenyl)-4-oxo-4,5-dihydropyrazolo[1,5-a]pyrazine-3-carboxamide] it is 54%; for `Cc1ccc(C23CN(C(=O)c4cn(C)c5c(C)cn(C)c(=O)c45)CC2C3(F)F)cc1` (centres unmarked) [Example 146, 3-((6,6-difluoro-1-(4-methylphenyl)-3-azabicyclo[3.1.0]hex-3-yl)carbonyl)-1,5,7-trimethyl-1,5-dihydro-4H-pyrrolo[3,2-c]pyridin-4-one] it is 65%.
In the case of `Cc1cn(C)c(=O)c2c(C(=O)N3CCC(c4ccc(Cl)cc4)CC3)cn(C)c12` [Example 258, 3-((4-(4-chlorophenyl)piperidin-1-yl)carbonyl)-1,5,7-trimethyl-1,5-dihydro-4H-pyrrolo[3,2-c]pyridin-4-one], the activity at 10 µM is 64%.
Turning to `Cc1cn(-c2ccccc2OCC(F)(F)F)c(=O)c2c(C(=O)Nc3ccc(OC(F)F)nc3)cnn12` [Example 338, N-[6-(difluoromethoxy)pyridin-3-yl]-7-methyl-4-oxo-5-[2-(2,2,2-trifluoroethoxy)phenyl]-4,5-dihydropyrazolo[1,5-a]pyrazine-3-carboxamide], the activity at 10 µM came out at 40%.
Still for that read-out and setting: the figure for `COc1cc(NC(=O)c2cn(C)c3c(C)cn(C)c(=O)c23)ccn1` [Example 36, N-(2-methoxypyridin-4-yl)-1,5,7-trimethyl-4-oxo-4,5-dihydro-1H-pyrrolo[3,2-c] pyridine-3-carboxamide] is 65%; for `Cc1cn(C)c(=O)c2c(C(=O)Nc3ccc(C#N)cn3)cn(C)c12` [Example 40, N-(5-cyanopyridin-2-yl)-1,5,7-trimethyl-4-oxo-4,5-dihydro-1H-pyrrolo[3,2-c]pyridine-3-carboxamide] it is 62%.
The same measure, in the same setting: the figure for `CCCCOC1CCCC(NC(=O)c2cn(C)c3c(C)cn(C)c(=O)c23)C1` (centres unmarked) [Example 57, N-(3-butoxycyclohexyl)-1,5,7-trimethyl-4-oxo-4,5-dihydro-1H-pyrrolo[3,2-c]pyridine-3-carboxamide] is 65%; for `Cc1cn(C)c(=O)c2c(C(=O)N3CC4CC4(c4cc(Cl)cc(C(F)(F)F)c4)C3)cn(C)c12` (centres unmarked) [Example 140, 3-((1-(3-chloro-5-(trifluoromethyl)phenyl)-3-azabicyclo[3.1.0]hex-3-yl)carbonyl)-1,5,7-trimethyl-1,5-dihydro-4H-pyrrolo[3,2-c]pyridin-4-one] it is 49%.
Still for that read-out and setting: the figure for `Cc1cn(C)c(=O)c2c(C(=O)N3CC4CC4(c4ccccc4C(F)(F)F)C3)cn(C)c12` (centres unmarked) [Example 137, 1,5,7-trimethyl-3-((1-(2-(trifluoromethyl)phenyl)-3-azabicyclo[3.1.0]hex-3-yl)carbonyl)-1,5-dihydro-4H-pyrrolo[3,2-c]pyridin-4-one] is 64%.
Turning to `Cc1cn(C)c(=O)c2c(C(=O)N3CC4CC4(c4cc(Cl)ccc4Cl)C3)cn(C)c12` (centres unmarked) [Example 123, 3-((1-(2,5-dichlorophenyl)-3-azabicyclo[3.1.0]hex-3-yl)carbonyl)-1,5,7-trimethyl-1,5-dihydro-4H-pyrrolo[3,2-c]pyridin-4-one], the activity at 10 µM is 47%.
The same measure, in the same setting: the figure for `Cc1cn(C)c(=O)c2c(C(=O)N3CCC(F)(c4ccc(Cl)cc4)C3)cn(C)c12` (centres unmarked) [Example 168, 3-((3-(4-chlorophenyl)-3-fluoropyrrolidin-1-yl)carbonyl)-1,5,7-trimethyl-1,5-dihydro-4H-pyrrolo[3,2-c]pyridin-4-one] is 40%; for `COc1ccccc1-n1cc(C)c2c(c(C(=O)NC3CCCCC3)cn2C)c1=O` [Example 107, N-cyclohexyl-5-(2-methoxyphenyl)-1,7-dimethyl-4-oxo-4,5-dihydro-1H-pyrrolo[3,2-c]pyridine-3-carboxamide] it is 50%.
Still for that read-out and setting: as for `Cc1cn(C)c(=O)n2c(C(=O)NC(C)(C)c3ccc(Cl)cc3)cnc12` [Example 347, N-[2-(4-chlorophenyl)propan-2-yl]-6,8-dimethyl-5-oxo-5,6-dihydroimidazo[1,2-c]pyrimidine-3-carboxamide], the figure is 44%.
For `COc1ccccc1-n1cc(C)c2ncc(C(=O)Nc3ccc(N4CCOCC4)cc3)n2c1=O` [Example 350, 6-(2-methoxyphenyl)-8-methyl-N-[4-(morpholin-4-yl)phenyl]-5-oxo-5,6-dihydroimidazo[1,2-c]pyrimidine-3-carboxamide], the activity at 10 µM worked out at 54%.
On the same count and under the same terms, the figure for `Cc1cn(C)c(=O)c2c(C(=O)N[C@H]3CCC[C@@H]3c3ccccc3)cn(C)c12` (racemic) [Example 110, 1,5,7-trimethyl-4-oxo-N-[rac-(1S,2R)-2-phenylcyclopentyl]-4,5-dihydro-1H-pyrrolo[3,2-c]pyridine-3-carboxamide] is 58%; for `Cc1cn(C)c(=O)c2c(C(=O)N3CC4CC4(c4ccccc4OC(F)(F)F)C3)cn(C)c12` (centres unmarked) [Example 151, 1,5,7-trimethyl-3-((1-(2-(trifluoromethoxy)phenyl)-3-azabicyclo[3.1.0]hex-3-yl)carbonyl)-1,5-dihydro-4H-pyrrolo[3,2-c]pyridin-4-one] it is 46%.
